Measurements reported in patent US8338414B2, “Immunosuppressive agent and anti-tumor agent comprising heterocyclic compound as active ingredient” (Zenyaku Kogyo KabushikiKaisha, priority 2005, dated 2012).
Where two headings read alike, the source gives them in different places.

How the values were obtained:
[1] = test system: mouse spleen cells; experiment: Proliferation inhibition assay for mouse spleen cells; format: cell-based; conditions: 3 days, Alamar Blue
Protocol: Spleen cells (2×10^6 cells/mL) prepared from C57BL/6N female mice (8 weeks old, purchased from Charles River Laboratories Japan Inc.) were suspended in RPMI 1640 medium (containing 10% fetal bovine serum, 10 mM HEPES, 1 mM pyruvic acid, 4.5 g/L glucose, 100 units/mL penicillin, and 0.1 mg/mL streptomycin), and seeded in wells of a 96 well plate at 0.225 mL per well. Serial dilutions of test substances were added to respective wells, and then concanavalin A (Con A, 3 μg/mL), lipopolysaccharide (LPS, 100 μg/mL), or an anti-mouse IgM antibody (100 μg/mL) were added. Thereafter, they were incubated under conditions of carbon dioxide 5% at a temperature 37° C. for 3 days. Next, Alamar Blue solution was added at 50 μL per 150 μL, and after having cultured for one day, the fluorescence intensity at 590 nm using an excitation wavelength of 530 nm was determined by Cytoflour 4000 (Applied Biosystems).

[2] = test system: human peripheral blood mononuclear cells; experiment: Proliferation inhibition assay for human peripheral blood mononuclear cells; format: cell-based; conditions: PBMC, anti-CD3 and anti-CD28 antibody, 3 days, Alamar Blue
Protocol: 4 mL of blood collected from healthy subjects was placed on 3 mL of MonoPoly Resolving Medium, and after centrifugation, the mononuclear cell (PBMC) fraction was collected. After washing with saline, PBMC (1×10^5 cells/mL) was suspended in RPMI 1640 medium (containing 10% fetal bovine serum, 10 mM HEPES, 1 mM pyruvic acid, and 4.5 g/L glucose). Next, after having added an anti-CD28 antibody (1 μg/mL) to the suspension, they were seeded on an anti-human CD3 T cell activation plate (BD Bioscience) at a capacity of 0.135 mL per well. Then, serial dilutions of test substances were added to respective wells, and incubated under conditions of carbon dioxide 5% at a temperature 37° C. After 3 days, Alamar Blue solution was added at 50 μL per well, and after incubation for one day, a fluorescence intensity at 590 nm using an excitation wavelength of 530 nm was determined by Cytoflour 4000 (Applied Biosystems).

[3] = test system: Rabbit synoviocytes HIG-82; experiment: Inhibition assay for proliferation of rabbit synoviocyte; format: cell-based; conditions: HIG-82, 3 days, Alamar Blue
Protocol: Rabbit synoviocytes HIG-82 suspended in HAM medium (containing 10% fetal bovine serum, 25 mM HEPES, and 0.1 mg/mL kanamycin) (with 4×10^4 cells/mL) were seeded in wells of a 96 well plate at 0.135 mL per well. Then, 15 μL of each of serial dilutions of test substances was added to a respective well, and incubated under conditions of carbon dioxide 5% at a temperature 37° C. Alamar Blue solution was added at 50 μL per well on day 0 and day 3, and incubated for one day, and thereafter fluorescence intensity at 590 nm using an excitation wavelength of 530 nm was determined by Cytoflour 4000 (Applied Biosystems).

[4] = test system: allogeneic mixed lymphocyte reaction; experiment: Allogeneic mixed lymphocyte reaction; format: cell-based, mouse; conditions: C57BL/6N spleen stimulator cells, BALB/c lymph node responder cells, 86 hours, BrdU
Protocol: Spleen cells prepared from C57BL/6N female mice (8-10 weeks old, purchased from Charles River Laboratories Japan Inc.) and peripheral lymph node mononuclear cells prepared from BALB/c female mice (8-10 weeks old, purchased from Charles River Laboratories Japan Inc.) were used as stimulator cells and responder cells, respectively. The respective cells were suspended in RPMI 1640 medium (containing 10% fetal bovine serum, 100 units/mL penicillin, and 0.1 mg/mL streptomycin) (with 2×10^6 cells/mL).

[5] = test system: Daudi cells; experiment: Proliferation inhibitory activity on hematologic neoplasm cells, Daudi; format: cell-based; conditions: 3 days, Alamar Blue
Protocol: (§1) Daudi cells (5×10^5 cells/mL), Jurkat cells (5×10^5 cells/mL), THP-1 cells (5×10^5 cells/mL), U 937 cells (5×10^5 cells/mL), and HL 60 cells (5×10^5 cells/mL) suspended in RPMI 1640 medium (containing 10% fetal bovine serum, 10 mM HEPES, 1 mM pyruvic acid, 4.5 g/L glucose, 100 units/mL penicillin, and 0.1 mg/mL streptomycin) were seeded in 96 well plates at a capacity of 0.135 mL per well. Serial dilutions of test substances were added to respective wells at 15 μL/well, and incubated under conditions of carbon dioxide 5% at 37° C. for 3 days. Thereafter, Alamar Blue solution was added at 50 μL, and after incubation for one day, the fluorescence intensity at 590 nm using an excitation wavelength of 530 nm was determined by Cytoflour 4000 (Applied Biosystems).

[6] = test system: Jurkat cells; experiment: Proliferation inhibitory activity on hematologic neoplasm cells, Jurkat; format: cell-based; conditions: 3 days, Alamar Blue
Protocol: as §1

[7] = test system: HL 60 cells; experiment: Proliferation inhibitory activity on hematologic neoplasm cells, HL60; format: cell-based; conditions: 3 days, Alamar Blue
Protocol: as §1

[8] = test system: THP-1 cells; experiment: Proliferation inhibitory activity on hematologic neoplasm cells, THP-1; format: cell-based; conditions: 3 days, Alamar Blue
Protocol: as §1

[9] = test system: U 937 cells; experiment: Proliferation inhibitory activity on hematologic neoplasm cells, U937; format: cell-based; conditions: 3 days, Alamar Blue
Protocol: as §1

[10] = 72 h, LPS 100 μg/mL, read-out: Inhibition of LPS response
[11] = 72 h, anti-mouse IgM antibody 100 μg/mL, read-out: Inhibition of Anti-IgM antibody response
[12] = 72 h, concanavalin A 3 μg/mL, read-out: Inhibition of Con A response

melting point | Compound | IC50 [1, 10] [µM] | IC50 [1, 11] [µM] | IC50 [1, 12] [µM] | also measured
256 °C (dec.) | Nc1cc(Cl)c2nc(C(F)F)n(-c3nc(N4CCOCC4)nc(N4CCCC4CO)n3)c2c1 (stereo not drawn) [Production Example 30, 2-(6-Amino-4-chloro-2-difluoromethylbenzimidazol-1-yl)-4-(2-hydroxymethylpyrrolidin-1-yl)-6-morpholino-1,3,5-triazine] | – | – | – | –
> 250 °C | Oc1ccc2c(nc(C(F)F)n2-c2nc(N3CCOCC3)nc(N3CCOCC3)n2)c1Cl [Production Example 31, 2-(4-Chloro-2-difluoromethyl-5-hydroxybenzimidazol-1-yl)-4,6-dimorpholino-1,3,5-triazine] | – | – | – | –
228 to 230 °C | O=CN1CCN(c2nc(N3CCOCC3)nc(-n3c(C(F)F)nc4ccccc43)n2)CC1 [Production Example 33, 2-(2-Difluoromethylbenzimidazol-1-yl)-6-(4-formylpiperazin-1-yl)-4-morpholino-1,3,5-triazine] | – | – | – | –
255 to 257 °C | O=C1CN(c2nc(N3CCOCC3)nc(-n3c(C(F)F)nc4ccccc43)n2)CCN1 [Production Example 34, 2-(2-Difluoromethylbenzimidazol-1-yl)-4-morpholino-6-(3-oxopiperazin-1-yl)-1,3,5-triazine] | – | – | – | –
217 to 220 °C | Cc1cc2nc(C(F)F)n(-c3nc(N4CCOCC4)nc(N4CCOCC4)n3)c2cc1C [Production Example 29, 2-(5,6-Dimethyl-2-difluoromethylbenzimidazol-1-yl)-4,6-dimorpholino-1,3,5-triazine] | – | – | – | –
230 to 232 °C | O=C1CN(c2nc(N3CCOCC3)nc(-n3c(C(F)F)nc4ccccc43)n2)CC(=O)N1 [Production Example 35, 2-(2-Difluoromethylbenzimidazol-1-yl)-6-(3,5-dioxopiperazin-1-yl)-4-morpholino-1,3,5-triazine] | – | – | – | –
255 to 260 °C | COC(=O)N1CCN(c2nc(N3CCOCC3)nc(-n3c(C(F)F)nc4ccccc43)n2)CC1 [Production Example 43, 2-(2-Difluoromethylbenzimidazol-1-yl)-4-(4-methoxycarbonylpiperazin-1-yl)-6-morpholino-1,3,5-triazine] | – | – | – | –

The next lines start with the compound.

Compound | melting point | IC50 [1, 10] [µM] | IC50 [1, 11] [µM] | IC50 [1, 12] [µM] | also measured
CC1(C)CN(c2cc(N3CCOCC3)nc(-n3c(C(F)F)nc4c(O)cccc43)n2)CCO1 [Compound 21, 2-(2-Difluoromethyl-4-hydroxybenzimidazol-1-yl)-4-(2,2-dimethylmorpholino)-6-morpholinopyrimidine] | 185 to 187 °C | ≤ 0.001 | ≤ 0.001 | ≤ 0.001 | –
Nc1nc2ccccc2n1-c1nc(N2CCOCC2)cc(N2CCOCC2)n1 [Compound 5, 2-(2-Aminobenzimidazol-1-yl)-4,6-dimorpholinopyrimidine] | 237 to 239 °C | 0.1 to 10 | 0.1 to 10 | 0.1 to 10 | –
2-(2-Difluoromethyl-4-hydroxybenzimidazol-1-yl)-4-morpholino-6-(2,6-dimethylmorpholino)pyrimidine [Compound 11] | – | – | – | – | IC50 [2]: > 10 µM; IC50 [3]: > 10 µM; IC50 [4]: 1.43 µM; IC50 [5]: 2.75 µM; IC50 [6]: > 10 µM; IC50 [7]: > 10 µM; IC50 [8]: > 10 µM; IC50 [9]: > 10 µM
CC1(C)CN(c2nc(N3CCOCC3)nc(-n3c(C(F)F)nc4ccc(N)cc43)n2)CCO1 [Compound 13, 2-(6-Amino-2-difluoromethylbenzimidazol-1-yl)-4-(2,2-dimethylmorpholino)-6-morpholino-1,3,5-triazine] | 226 to 227 °C (dec.) | 0.001 to 0.1 | 0.001 to 0.1 | 0.001 to 0.1 | –
C[C@@H]1OCCN(c2nc(N3CCOCC3)nc(-n3cnc4ccccc43)n2)[C@H]1C (relative stereo) [Compound 2, 2-(Benzimidazol-1-yl)-4-(trans-2,3-dimethylmorpholino)-6-morpholino-1,3,5-triazine] | 147 to 150 °C | 0.1 to 10 | 0.1 to 10 | 0.1 to 10 | –
CC1CN(c2cc(N3CC(C)OC(C)C3)nc(-n3c(C(F)F)nc4cc(N)ccc43)n2)CC(C)O1 (stereo not drawn) [Compound 17, 2-(5-Amino-2-difluoromethylbenzimidazol-1-yl)-4,6-di(2,6-dimethylmorpholino)pyrimidine] | 157 to 160 °C | 10 to 100 | 0.1 to 10 | 0.1 to 10 | –
Oc1ccc2c(c1)nc(C(F)F)n2-c1nc(N2CCOCC2)nc(N2CCOCC2)n1 [Compound 12, 2-(2-Difluoromethyl-5-hydroxybenzimidazol-1-yl)-4,6-dimorpholino-1,3,5-triazine] | 272 to 274 °C | 0.001 to 0.1 | 0.001 to 0.1 | 0.001 to 0.1 | –
FC(F)c1nc2ccccc2n1-c1nc(N2CCCCC2)nc(N2CCOCC2)n1 [Compound 7, 2-(2-Difluoromethylbenzimidazol-1-yl)-4-piperidino-6-morpholino-1,3,5-triazine] | 190 to 192 °C | 0.1 to 10 | 0.1 to 10 | 0.1 to 10 | –
CCOc1ccc2nc(C(F)F)n(-c3nc(N4CCOCC4)nc(N4CCOCC4)n3)c2c1 [Compound 9, 2-(2-Difluoromethyl-6-ethoxybenzimidazol-1-yl)-4,6-dimorpholino-1,3,5-triazine] | 222 to 224 °C | 0.001 to 0.1 | 0.001 to 0.1 | 0.001 to 0.1 | –
C[C@@H]1OCCN(c2nc(N3CCOCC3)nc(-n3c(C(F)F)nc4ccc(N)cc43)n2)[C@@H]1C (relative stereo) [Compound 8, 2-(6-Amino-2-difluoromethylbenzimidazol-1-yl)-4-(cis-2,3-dimethylmorpholino)-6-morpholino-1,3,5-triazine] | 220 to 222 °C (dec.) | 0.1 to 10 | 0.001 to 0.1 | 0.001 to 0.1 | –
ON1CCN(c2nc(N3CCOCC3)nc(-n3c(C(F)F)nc4ccccc43)n2)CC1 [Compound 26, 2-(2-Difluoromethylbenzimidazol-1-yl)-4-(4-hydroxypiperizin-1-yl)-6-morpholino-1,3,5-triazine] | – | – | – | – | IC50 ([1]; LPS 100 μg/mL, read-out: Inhibition of LPS response): 0.001 to 0.1 µM; IC50 ([1]; concanavalin A 3 μg/mL, read-out: Inhibition of Con A response): ≤ 0.001 µM; IC50 [3]: 2.38 µM; IC50 [5]: 0.426 µM; IC50 [6]: 3.12 µM; IC50 [8]: 0.865 µM
